Measured values as given in ChEMBL document CHEMBL3822434 (Bioorg Med Chem, 2016).
Converted amounts (≈) assume the structure as drawn.

What was measured:
[1] = Intrinsic clearance in mouse liver microsomes at 1 uM after 30 mins in presence of NADPH by LC-MS/MS analysis; type: ADME; conditions: read-out: CLH
[2] = Solubility in 50 mM phosphate buffer at pH 6.5 irradiated ultrasonically for 10 mins followed by incubation for 24 hrs by HPLC-UV analysis; type: physicochemical
Liver cytosol [3] = experiment: Drug metabolism in human liver cytosol at 1 uM assessed as N-(2-Methoxy-4-((3-(4-methylpiperazin-1-yl)propyl)carbamoyl)phenyl)-4-oxo-3,4-dihydrothieno[3,2-d]pyrimidine-7-carboxamide formation after 30 mins in presence of NADPH by LC-MS/MS analysis; type: ADME; conditions: 0.5 h
[4] = Drug metabolism in mouse liver cytosol at 1 uM assessed as N-(2-Methoxy-4-((3-(4-methylpiperazin-1-yl)propyl)carbamoyl)phenyl)-4-oxo-3,4-dihydrothieno[3,2-d]pyrimidine-7-carboxamide formation after 30 mins in presence of NADPH by LC-MS/MS analysis; type: ADME; conditions: 0.5 h
[5] = Solubility in fasted state simulated intestinal fluid irradiated ultrasonically for 10 mins followed by incubation for 24 hrs by HPLC-UV analysis; type: ADME
[6] = Intrinsic clearance in human liver microsomes at 1 uM after 30 mins in presence of NADPH by LC-MS/MS analysis; type: ADME; conditions: read-out: CLH
[7] = target: T1, Mitogen-activated protein kinase kinase kinase 7 (Homo sapiens, UniProt O43318); experiment: Inhibition of human recombinant TAK1 fused with TAB1 using MKK6 as substrate in presence of gamma-[33P]ATP
T1 sequence (O43318 whole entry): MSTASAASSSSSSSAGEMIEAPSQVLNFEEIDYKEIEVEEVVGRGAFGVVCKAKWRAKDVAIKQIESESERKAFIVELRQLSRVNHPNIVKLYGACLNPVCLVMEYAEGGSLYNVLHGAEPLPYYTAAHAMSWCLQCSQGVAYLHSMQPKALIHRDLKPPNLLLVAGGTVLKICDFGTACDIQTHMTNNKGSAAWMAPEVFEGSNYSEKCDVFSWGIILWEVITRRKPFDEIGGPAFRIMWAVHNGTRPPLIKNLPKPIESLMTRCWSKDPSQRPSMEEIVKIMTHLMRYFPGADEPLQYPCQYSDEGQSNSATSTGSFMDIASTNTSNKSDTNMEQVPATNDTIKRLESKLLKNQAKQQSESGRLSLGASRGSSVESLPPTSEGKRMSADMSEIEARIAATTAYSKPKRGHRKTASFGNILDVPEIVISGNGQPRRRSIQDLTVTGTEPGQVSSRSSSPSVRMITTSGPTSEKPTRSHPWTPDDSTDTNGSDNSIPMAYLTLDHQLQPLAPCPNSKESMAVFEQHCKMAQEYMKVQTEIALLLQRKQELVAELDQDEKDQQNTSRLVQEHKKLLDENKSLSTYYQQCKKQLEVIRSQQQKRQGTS

[8] = target: T1, Mitogen-activated protein kinase kinase kinase 7; experiment: Inhibition of recombinant FLAG-tagged TAK1 kinase domain (unknown origin) expressed in baculovirus expression system coexpressing TAB using biotin-labeled MKK6kd substrate incubated for 1 hr by AlphaScreen assay
[9] = Apparent permeability in human Caco2 cells; type: ADME, cell-based; conditions: Caco-2
[10] = target: T1, Mitogen-activated protein kinase kinase kinase 7; experiment: Inhibition of TAK1 (unknown origin)
Liver cytosol [11] = experiment: Drug level in human liver cytosol treated with N-(2-Methoxy-4-((3-(4-methylpiperazin-1-yl)propyl)carbamoyl)phenyl)thieno[3,2-d]pyrimidine-7-carboxamide after 30 mins in presence of NADPH by LC-MS/MS analysis; type: ADME, tissue-based; conditions: 0.5 h
[12] = Drug level in mouse liver cytosol treated with N-(2-Methoxy-4-((3-(4-methylpiperazin-1-yl)propyl)carbamoyl)phenyl)thieno[3,2-d]pyrimidine-7-carboxamide after 30 mins in presence of NADPH by LC-MS/MS analysis; type: ADME, tissue-based; conditions: 0.5 h
[13] = target: T1, Mitogen-activated protein kinase kinase kinase 7; experiment: Inhibition of recombinant TAK1 (unknown origin)

| Compound | solubility at 24 h [2] | solubility at 24 h [5] | microsomal CLint at 1 µM [6] | further results |
| --- | --- | --- | --- | --- |
| COc1cc(C(=O)NCCCN2CCN(C)CC2)ccc1NC(=O)c1csc2cncnc12 | 377 µg/mL (≈ 805 µM) | 420 µg/mL (≈ 896 µM) | 21 µL/min/mg | microsomal CLint at 1 µM [1]: 80 µL/min/mg; Drug metabolism (Liver cytosol [3]): metabolite_detected; Drug metabolism [4]: metabolite_detected |
| COc1cc2ncccc2cc1NC(=O)c1csc2cncnc12 | < 3 µg/mL | < 3 µg/mL |  |  |
| C[C@H]1OC2C3=C(C(=O)[C@@H]4O[C@@H]4[C@H]3O)C1[C@@H]1[C@@H](C)OC=C3[C@H](O)[C@H]4O[C@H]4C(=O)[C@@]321 (stereo partly specified) |  |  |  | IC50 [7]: 20000 nM |
| COc1cc(C(=O)N2CCN(C)CC2)ccc1NC(=O)c1csc2cncnc12 | 293 µg/mL (≈ 712 µM) | 312 µg/mL (≈ 758 µM) | 26 µL/min/mg |  |
| CCc1cc(Nc2ncc(F)c(-c3cnc4cccnn34)n2)cc(OCCN2CCC(O)CC2)c1 |  |  |  | IC50 [8]: 8 nM |
| COc1cc(N2CCN(C)CC2)ccc1NC(=O)c1csc2cncnc12 | 353 µg/mL (≈ 921 µM) | 351 µg/mL (≈ 915 µM) | 11 µL/min/mg |  |
| CC(C)Oc1c(NC(=O)c2csc3c(=O)[nH]cnc23)cccc1C(=O)N1CCN(C)CC1 |  |  |  | Papp [9]: < 1 ×10⁻⁶ cm/s |
| COCCN1CCN(Cc2ccc(-c3cc(NC(N)=O)c(C(N)=O)s3)cc2)CC1 |  |  |  | IC50 [10]: 50 nM |
| COc1cc(C(=O)NCCCN2CCN(C)CC2)ccc1NC(=O)c1csc2c(=O)[nH]cnc12 |  |  |  | Drug metabolism (Liver cytosol [11]): metabolite_detected; Drug metabolism [12]: metabolite_detected |
| Cc1cc(NC(=O)Nc2cc(C(C)(C)C)nn2-c2cccc(C#N)c2)ccc1Oc1ccncc1 |  |  |  | IC50 [13]: 156 nM |
